Measurements from patent US4108857A, “Imidazolylmethyl methanobenzazocines” (Sterling Drug Inc., priority 1977, dated 1978).
In brackets after ≈: the same amount, converted by molar mass. Counter-ions that a name gives are not always drawn.

How the values were obtained:
[1] = precipitation on diluting ethyl alcohol solution with four volumes of water; format: physicochemical; details: 5 percent (w/v) solution in 95 percent ethyl alcohol
[2] = solubility in 95 percent ethyl alcohol; details: for solubility: 95% ethanol, organic solvent or mixture
[3] = test system: maximal electroshock seizures; test: anti-maximal electroshock seizure test in mice; format: in vivo
Protocol: The preferred species of this invention, i.e. the compounds having in free base form Formula II, are useful as analgesic agents administered orally or parenterally to humans. […] In the anti-maximal electroshock seizure test, the compounds were administered intraperitoneally or perorally 30 or 90 minutes prior to the application of 50 milliamperes of alternating current through corneal electrodes. Shock duration was 0.3 second. The criterion for anticonvulsant activity was the absence of the tonic hind leg extensor component of the seizure. In the anti-maximal pentylenetetrazol seizure test, the compounds were given intraperitoneally 30 or 90 minutes prior to the rapid intravenous injection of 50 mg. per kg. of pentylenetetrazol. Failure to display tonic hind leg extensor seizures was again the criterion for drug action. Representative results, expressed as ED50 (mg./kg.), which were obtained with my new compounds in these two tests are as follows: […]

[4] = solubility in water or aqueous acid; details: for solubility: water
pH of solution = format: physicochemical; details: for pH of 1 percent aqueous solution: 1 percent solution (Example 26 as dihydrochloride, Example 32 as such, others as hydrochloride)
[5] = test system: maximal pentylenetetrazol seizures; test: anti-maximal pentylenetetrazol seizure test in mice; format: in vivo; details: for ED50: Mus musculus
[6] = precipitation on gradual pH adjustment of the aqueous solution; format: physicochemical; details: for pH at which a precipitate formed: addition of N/10 sodium hydroxide solution to aqueous solution of hydrochloride; for precipitation on adjusting to pH 7.0: 1 percent solution
mice = test: inclined screen test in mice (skeletal muscle relaxation); format: in vivo; details: 100 mg./kg. subcutaneously, mice
humans = test: analgesic use in humans; format: in vivo
Protocol: For example, administered orally, the effective dosage of the racemic cis form of this compound in humans has been determined to be about 0.1 to 0.5 mg. of drug per kg. of body weight per day, at 5-25 mg. per dose; preferably about 0.2 to 0.4 mg./kg./day, for instance a total of […] at 20 mg./dose.

[7] = one entry spanning PO 30' and 90'

CC1[C@@H]2Cc3ccccc3[C@@]1(C)CCN2CC1CCC1 (mixture of isomers) [Example 4, racemic 1,2,3,4,5,6-hexahydro-3-cyclobutylmethyl-cis-6,11-dimethyl-2,6-methano-3-benzazocine]
precipitation on dilution with four volumes of water [1]: no precipitate formed | solubility of hydrochloride in 95 percent ethyl alcohol [2]: 5 percent (w/v) | Anti-Maximal Electroshock ED50 ([3]; IP, 30', 30 min): 30.5 ± 5.8 mg/kg | Anti-Maximal Electroshock ED50 ([3]; IP, 90'): INACT. | Anti-Maximal Electroshock ED50 [3, 7]: inact. | solubility of hydrochloride in water ([4]; hydrochloride): less than 0.25% | pH of ethyl alcohol solution diluted with four volumes of water (pH of solution; hydrochloride, 5 percent (w/v) in 95 percent ethyl alcohol, then diluted): 6.1 | Anti-Maximal Pentylenetetrazol ED50 ([5]; IP, 30', 30 min): 13.2 ± 3 mg/kg | Anti-Maximal Pentylenetetrazol ED50 ([5]; IP, 90', 90 min): 26.2 ± 8.1 mg/kg | Anti-Maximal Pentylenetetrazol ED50 ([5]; PO, 30'): INACT. | Anti-Maximal Pentylenetetrazol ED50 ([5]; PO, 90', 90 min): 25.8 ± 7 mg/kg

C[C@@H]1[C@H]2Cc3ccccc3[C@]1(C)CCN2CC1CC1 (relative stereo) [Example 2, racemic 1,2,3,4,5,6-hexahydro-3-cyclopropylmethyl-trans-6,11-dimethyl-2,6-methano-3-benzazocine]
solubility [2]: < 10 mg/mL | solubility [4]: < 2.5 mg/mL

CC[C@]12CCN(CC3CC3)[C@H](Cc3ccccc31)[C@@H]2C (relative stereo) [Example 3, 1,2,3,4,5,6-hexahydro-3-cyclopropylmethyl-cis-(6-ethyl-11-methyl)-2,6-methano-3-benzazocine]
solubility [4]: 200 mg/mL (≈ 742 mM) | pH of 1 percent aqueous solution (pH of solution): 5.6 | pH at which a precipitate formed [6]: 6.5

C[C@H]1[C@H]2Cc3ccccc3[C@]1(C)CCN2CC1CC(C)(C)C1 (relative stereo) [Example 5, racemic 1,2,3,4,5,6-hexahydro-3-(3,3-dimethylcyclobutylmethyl)-cis-6,11-dimethyl-2,6-methano-3-benzazocine]
precipitation on dilution with four volumes of water [1]: a precipitate formed | solubility [2]: 50 mg/mL (≈ 168 mM) | solubility [4]: 5 mg/mL (≈ 16.8 mM) | pH of 0.5 percent aqueous solution (pH of solution; hydrochloride, 0.5 percent): 6.8 | pH at which a precipitate formed [6]: 6.8

C[C@H]1[C@H]2Cc3ccccc3[C@]1(C)CCN2CC1CCCC1 (relative stereo) [Example 6, racemic 1,2,3,4,5,6-hexahydro-3-cyclopentylmethyl-cis-6,11-dimethyl-2,6-methano-3-benzazocine]
Anti-Maximal Electroshock ED50 ([3]; one entry spanning PO and IP, 30' and 90'): INACTIVE | solubility [4]: 10 mg/mL (≈ 35.3 mM) | pH of 1 percent aqueous solution (pH of solution): 6.2 | ED50 ([5]; 0.5 h, IP, 30'): 11.7 ± 2 mg/kg | ED50 ([5]; 1.5 h, IP, 90'): 8 ± 3 mg/kg | Anti-Maximal Pentylenetetrazol ED50 [5, 7]: INACTIVE | pH at which a precipitate formed [6]: 6.3

CC(C)=CCN1CC[C@@]2(C)c3ccccc3C[C@@H]1[C@@H]2C (relative stereo) [Example 10, racemic 1,2,3,4,5,6-hexahydro-3-(3-methyl-2-butenyl)-cis-6,11-dimethyl-2,6-methano-3-benzazocine]
solubility [4]: 200 mg/mL (≈ 742 mM) | pH of 1 percent aqueous solution (pH of solution): 6.1 | precipitation on adjusting to pH 7.0 ([6]; N/10 sodium hydroxide solution): no precipitate was formed

C[C@H]1[C@H]2Cc3ccccc3[C@]1(C)CCN2CCC(=O)O (relative stereo) [Example 24, racemic 1,2,3,4,5,6-hexahydro-3-(2-carboxyethyl)-cis-6,11-dimethyl-2,6-methano-3-benzazocine hydrochloride]
solubility [4]: 100 mg/mL | pH of 1 percent aqueous solution (pH of solution): 3.0 | precipitation on adjusting to pH 7.0 ([6]; N/10 sodium hydroxide solution): no precipitate formed

C[C@H]1[C@H]2Cc3ccccc3[C@]1(C)CCN2CCCN (relative stereo) [Example 26, racemic 1,2,3,4,5,6-hexahydro-3-(3-aminopropyl)-cis-6,11-dimethyl-2,6-methano-3-benzazocine]
solubility [4]: 200 mg/mL (≈ 774 mM) | pH of 1 percent aqueous solution (pH of solution): 6.6 | precipitation on adjusting to pH 7.0 ([6]; N/10 sodium hydroxide solution): no precipitate was formed

C[C@H]1[C@H]2Cc3ccccc3[C@]1(C)CCN2CCc1c[nH]c2ccccc12 (relative stereo) [Example 30, racemic 1,2,3,4,5,6-hexahydro-3-[2-(3-indolyl)ethyl]-cis-6,11-dimethyl-2,6-methano-3-benzazocine]
solubility of hydrochloride in 95 percent ethyl alcohol [2]: less than one | solubility [4]: < 2.5 mg/mL

CCCCNC(=O)N1CC[C@@]2(C)c3ccccc3C[C@@H]1[C@@H]2C (relative stereo) [Example 32, racemic 1,2,3,4,5,6-hexahydro-3-(n-butylcarbamyl)-cis-6,11-dimethyl-2,6-methano-3-benzazocine]
solubility [4]: 200 mg/mL (≈ 666 mM) | pH of 1 percent aqueous solution (pH of solution): 9.2 | precipitation on adjusting to pH 7.0 ([6]; N/10 hydrochloric acid solution): no precipitate was formed

C[C@H]1[C@H]2Cc3ccccc3[C@]1(C)CCN2C(=O)c1cccnc1 (relative stereo) [Example 34, racemic 1,2,3,4,5,6-hexahydro-3-nicotinoyl-cis-6,11-dimethyl-2,6-methano-3-benzazocine]
solubility [4]: 200 mg/mL (≈ 653 mM) | pH of 1 percent aqueous solution (pH of solution): 2.7 | pH at which a precipitate formed [6]: 3.0

C[C@H]1[C@H]2Cc3ccccc3[C@]1(C)CCN2Cc1cncn1C (relative stereo) [Example 37, racemic 1,2,3,4,5,6-hexahydro-3-(1-methylimidazol-5-yl)methyl-cis-6,11-dimethyl-2,6-methano-3-benzazocine]
side-effect in the inclined screen test (mice): CNS stimulation | skeletal muscle relaxant activity in the inclined screen test (mice; 30 or 60 minutes): active | precipitation on dilution with four volumes of water [1]: precipitated | solubility [2]: 50 mg/mL (≈ 169 mM) | solubility [4]: < 2.5 mg/mL

COC(CN1CC[C@@]2(C)c3ccccc3C[C@@H]1[C@@H]2C)OC (relative stereo) [Example 39, racemic 1,2,3,4,5,6-hexahydro-3-(2,2-dimethoxyethyl)cis-6,11-dimethyl-2,6-methano-3-benzazocine]
solubility [4]: 200 mg/mL (≈ 691 mM) | pH of 1 percent aqueous solution (pH of solution): 5.9 | precipitation on adjusting to pH 7.0 ([6]; N/10 sodium hydroxide solution): no precipitate formed

CC[C@H]1[C@H]2Cc3ccccc3[C@]1(C)CCN2C (relative stereo) [racemic 1,2,3,4,5,6-hexahydro-3-methyl-cis-(6-methyl-11-ethyl)-2,6-methano-3-benzazocine]
solubility [4]: 50 mg/mL (≈ 218 mM) | pH of 1 percent aqueous solution (pH of solution): 6.7 | precipitation on adjusting to pH 7.0 ([6]; N/10 sodium hydroxide solution): no precipitate formed

CC1C2Cc3ccc(O)cc3C1(C)CCN2CC1CC1 (stereo not drawn) [1,2,3,4,5,6-hexahydro-3-cyclopropylmethyl-8-hydroxy-6,11-dimethyl-2,6-methano-3-benzazocine, reference compound]
psychotomimetic effects in humans (humans; analgesically effective doses): significant incidence of psychotomimetic effects | analgesic activity in humans (humans; humans): potent analgesic

C[C@H]1[C@H]2Cc3ccccc3[C@]1(C)CCN2CC1CCCO1 (stereo partly drawn) [Example 28, 1,2,3,4,5,6-hexahydro-3-(tetrahydro-2-furylmethyl)-cis-6,11-dimethyl-2,6-methano-3-benzazocine]
solubility [2]: 50 mg/mL (≈ 175 mM) | solubility [4]: < 2.5 mg/mL
